Experimental data reported in US8841121B2, “Vector, vector combinations, methods and kit thereof” (Jawaharlal Nehru Centre for Advanced Scientific Research, priority 2010, dated 2014).
“Also recorded” adds a separate entry of the source.

How the values were obtained:
[1] = target: T1, Tat (Human immunodeficiency virus type 1 group M subtype B, UniProt P35965); assay: Tat-inducible GFP / anti-RFP shRNA reporter assay, transient transfection in HEK293 cells; format: cell-based, HIV-1; set-up: The full-length Tat cDNA from molecular clone YU-2 (subtype-B) is made from cellular RNA of 293 cells; expressed in transfected cells; host or cells: HEK293 (293) cells, transient transfection; pcDNA3.1 CMV-Tat (YU-2) or EF-1α-Tat (YU-2) vector
Description: (§1) Vector DNA Transfection: All the proof-of-the-concept assays embedded in this document are performed using the transient transfection method formats. Most of the experiments are done using host cells such as HEK293 cells and preferably the standard calcium transfection protocol. Further, few experiments are also performed using HeLa cells. A commercial lipid formulation is used for this and is used following the suppliers instructions.
siRNA Transfection: Anti-Tat siRNA molecules are introduced into cells using a commercial lipid-nanoparticle formulation as per the instructions from the supplier.
Adding Tat Inhibitors to the Cell and Screening to Identify Anti-viral/Tat Molecules: The assays are performed using the following format although several variations are introduced depending on the need. • a) Cell Plating: Cells are plated in 96-well culture plates the previous evening and on the morning of the experiment, they are at 30-40% occupancy and in the logarithmic growth phase. • b) DNA Vector Transfection: A combination of 4 vectors is used in most of the assays. The total DNA concentration ranged from 1 to 2 μg per a 24-well plate or 100-200 ng per 96-well plate depending on the context. • 1. Anti-RFP siRNA vector (pPRIME-LTR-GFP: anti-RFP miRNA (p604.344):100-600 ng • 2. Anti-RFP siRNA vector (pPRIME-LTR-GFP: anti-RFP miRNA (p604.620): 100-600 ng • 3. CMV-Tat (YU-2) vector:50-200 ng • 4. CMV-RFP vector (pCMV-RFP-IRES-Puro) (FIGS. 21):50-200 ng
Cells are monitored for GFP or RFP expression after 24 h after subjected to an anti-Tat compound.
Anti-Tat Compound Treatment: A small molecule inhibitor (at concentrations mentioned in individual experiments above) or anti-Tat siRNA (20-100 ng per well) are used. The anti-Tat agent is used immediately after plasmid DNA transfection or after 12-24 h. Cells are removed from the wells by trypsinization and made into single cell suspension in phosphate buffered saline. The mean fluorescence intensity of the cells was determined using flow cytometry. Alternatively, cells were removed from the well using trypsinization and suspended in PBS. The intensity of the fluorescence was quantitatively determined using a standard fluorimeter. Fluorescent protein gene expression is measured at 24, 36, 48 and 72 h from vector transfection, at one time point or multiple time points.
(§2) DRB (5, 6-dichloro-1-beta-D-ribofuranosylbenzimidazole) a small molecule inhibitor, blocks an essential cellular enzyme CDK9, a kinase, critical for general transcription of many genes and therefore is cytotoxic. […] The Tat inhibition potential as well as cytotoxicity of DRB at 3 different concentrations is tested in HEK 293 cells using plasmid combinations as defined in Table-2. Images of the cells are captured using light microscopy, GFP or RFP filters at 36 h. […] Thus, the GFP-based assay identifies false hits, but not the instant RFP-based assay.

[2] = system: HEK 293 cells; assay: Cytotoxicity / cell death by light microscopy in transfected HEK 293 cells; format: cell-based; settings: for Cytotoxicity / cell death (light microscopy): HEK 293 cells, increasing concentrations of the inhibitor
Description: Tat up-regulates GFP expression (middle panels). […] Thus, a cytotoxic molecule down-regulates GFP without being a Tat inhibitor.
293 cells are transiently transfected with pPRIME-LTR-GFP: anti-RFP miRNA (p604.344 and p604.620), CMV-RFP and EF-1α-Tat (YU-2) vectors. Cells are treated with different concentrations of the SMI 24 h after transfection. GFP and RFP expression is recorded 24 h after vector transfection. LM, Light microscopy.
as §2

[3] = target: T1, Tat; assay: Tat-inducible GFP / anti-RFP shRNA reporter assay, transient transfection in HeLa cells; format: cell-based, HIV-1; set-up: The full-length Tat cDNA from molecular clone YU-2 (subtype-B) is made from cellular RNA of 293 cells; expressed in transfected cells; pcDNA3.1 CMV-Tat (YU-2) or EF-1α-Tat (YU-2) vector; settings: 25 μM, 24 h
Description: HeLa cells are transiently transfected with pPRIME-LTR-GFP: anti-RFP miRNA (p604.344 and p604.620), CMV-RFP and EF-1α-Tat (YU-2) vectors. Cells are treated with 25 μM DRB. GFP and RFP expression is recorded 24 h after vector transfection.
as §1
The assay also identifies SMI which inhibit cellular factors needed for Tat. 5,6-Dichlorobenzimidazole Riboside (DRB) is a potent inhibitor of CDK9 which is a cellular factor necessary for Tat function. […] Thus the assay of the present disclosure also identify such SMI that have an indirect effect on Tat function.

[4] = target: T2, Tat (Human immunodeficiency virus type 1 group M subtype B, UniProt P04608); settings: HeLa cells, increasing concentration; cited from earlier work
T2 construct: host or cells: HeLa cells

[5] = HEK 293 cells, with Tat, increasing/different concentrations of the inhibitor

T1 sequence (P35965 whole entry): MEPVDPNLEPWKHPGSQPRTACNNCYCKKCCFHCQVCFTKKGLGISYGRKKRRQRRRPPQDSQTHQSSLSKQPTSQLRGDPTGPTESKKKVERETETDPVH
T2 sequence (P04608 whole entry): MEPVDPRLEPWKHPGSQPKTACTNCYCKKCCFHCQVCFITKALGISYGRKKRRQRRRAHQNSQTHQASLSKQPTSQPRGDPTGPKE

CC[C@H](CO)Nc1nc(NCc2ccccc2)c2ncn(C(C)C)c2n1 [Roscovitine]
GFP expression ([1]; 293 cells, 3 μM, 48 h): reduced expression of GFP | RFP expression ([1]; 293 cells, 3 μM, 48 h): not in enhanced expression of RFP | Cytotoxicity ([2]; 293 cells, 3 μM): cytotoxicity

CN1CC[C@H](c2c(O)cc(O)c3c(=O)cc(-c4ccccc4Cl)oc23)[C@H](O)C1 [Flavipiridol]
Cytotoxicity / cell death (light microscopy) [2]: progressive increase in cytotoxicity

COc1cccc2c1C(=O)c1c(O)c3c(c(O)c1C2=O)C[C@@](O)(C(C)=O)C[C@@H]3O[C@H]1C[C@H](NCc2ccc(CN[C@H]3C[C@H](O[C@H]4C[C@](O)(C(C)=O)Cc5c(O)c6c(c(O)c54)C(=O)c4c(OC)cccc4C6=O)O[C@@H](C)[C@H]3O)cc2)[C@H](O)[C@H](C)O1 [WP631]
RFP expression ([1]; 293 cells, 100 nM): partially relieves Tat-mediated inhibition of RFP | GFP expression [1, 5]: marginally reduced GFP expression; also recorded: marginal down regulation of GFP | RFP expression [1, 5]: small relief in RFP suppression is evident, this is not significant; also recorded: insignificant levels of up-regulation of RFP; also recorded: partially relieves RFP gene expression | Cytotoxicity (cell density under light microscopy) ([2]; 293 cells, WP631 treatment (100 nM)): Low level cytotoxicity | Cytotoxicity / cell death (light microscopy) [2]: toxic to the cell at higher concentrations; also recorded: causes apoptosis at higher concentrations

COc1ccc(C(=O)C2=C3OC(C)(C)[C@@H](CC=C(C)C)C[C@@]34C[C@@H](CC=C(C)C)C(C)(C)[C@@](CC=C(C)C)(C2=O)C4=O)cc1O [LTK14]
GFP expression [1, 5]: down regulation of GFP | RFP expression [1, 5]: not enhanced RFP expression | Cytotoxicity / cell death (light microscopy) [2]: progressively increased cell death

OC[C@H]1O[C@@H](n2cnc3cc(Cl)c(Cl)cc32)[C@H](O)[C@@H]1O [DRB, 5,6-dichloro-1-beta-D-ribofuranosylbenzimidazole]
GFP expression [1, 5]: GFP expression also is reduced; also recorded: progressive reduction in GFP expression; also recorded: progressive down-regulation of GFP expression | RFP expression [1, 5]: should have been up-regulated, which is not the case here; also recorded: no concomitant up-regulation of RFP expression | Cytotoxicity / cell death (light microscopy) [2]: enhanced cell death with increasing concentrations; also recorded: increasing levels of cytotoxicity; also recorded: significant levels of cell death | GFP expression [3]: relative down regulation of GFP | RFP expression [3]: relieves Tat-mediated RFP suppression; also recorded: relieves RFP gene expression

O=C1CN=C(c2ccc[nH]2)c2cc(Cl)ccc2N1 [R05-3335]
GFP expression [4]: GFP expression is down-regulated
